biological target: T1, Axl (Homo sapiens, UniProt P30530); experiment: Phospho-Akt in-cell Western assay; format: cell-based; conditions: Hela cells, stimulated by Axl-antibody cross-linking, phospho-Akt chemiluminescence; Table 1, formula (Ia)
T1 construct: endogenous in cells; host or cells: HeLa cells
T1 sequence (P30530 26-894): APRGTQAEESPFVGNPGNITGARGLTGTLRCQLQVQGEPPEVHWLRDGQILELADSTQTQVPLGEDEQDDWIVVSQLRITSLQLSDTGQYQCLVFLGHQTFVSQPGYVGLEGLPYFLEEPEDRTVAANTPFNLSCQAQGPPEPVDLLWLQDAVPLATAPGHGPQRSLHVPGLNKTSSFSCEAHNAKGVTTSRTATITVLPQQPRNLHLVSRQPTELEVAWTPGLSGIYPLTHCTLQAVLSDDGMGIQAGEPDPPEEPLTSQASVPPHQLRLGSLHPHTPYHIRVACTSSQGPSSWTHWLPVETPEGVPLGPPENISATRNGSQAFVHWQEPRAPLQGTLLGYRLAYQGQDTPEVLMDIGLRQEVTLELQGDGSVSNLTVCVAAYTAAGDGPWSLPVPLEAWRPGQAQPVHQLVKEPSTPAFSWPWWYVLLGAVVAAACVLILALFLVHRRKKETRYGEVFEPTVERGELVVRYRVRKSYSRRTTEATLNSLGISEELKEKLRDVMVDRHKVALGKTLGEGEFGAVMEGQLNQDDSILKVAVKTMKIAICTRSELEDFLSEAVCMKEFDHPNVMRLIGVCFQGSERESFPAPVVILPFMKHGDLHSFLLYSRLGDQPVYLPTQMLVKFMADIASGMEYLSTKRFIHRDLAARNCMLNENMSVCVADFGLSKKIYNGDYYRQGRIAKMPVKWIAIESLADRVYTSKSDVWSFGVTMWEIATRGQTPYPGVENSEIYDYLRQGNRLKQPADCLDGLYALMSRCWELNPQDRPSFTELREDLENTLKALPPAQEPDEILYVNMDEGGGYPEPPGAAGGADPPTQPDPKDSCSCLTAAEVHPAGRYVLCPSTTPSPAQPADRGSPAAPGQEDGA
Method: Phospho-Akt in-Cell Western Assay
The compounds of the invention were tested in the following assay for their ability to inhibit Axl activity.
• Cell culture plate: 96 well assay plate (Corning 3610), white, clear bottom, tissue-culture treated. • Cells: Hela cells. • Starvation medium: For Axl stimulation: 0.5% FCS (fetal calf serum) in DMEM, plus Axl/Fc (extracellular domain of AXL fused to imunoglobulin Fc region) (R&D, 154-AL) 500 ng/mL. • For EGF (epidermal growth factor) stimulation: 0.5% FCS in DMEM (Dulbecco's modified Eagles medium). • Poly-L-Lysine 0.01% solution (the working solution): 10 μg/ml, dilute In PBS (phosphate buffered saline). • Axl antibody cross-linking: • 1st: Mouse anti-Axl (R&D, MAB154). • 2nd: Biotin-SP-conjugated AffiniPure goat anti-mouse IgG (H+L) (Jackson ImmunoResearch #115-065-003). • Fixing buffer: 4% formaldehyde in PBS. • Wash buffer: 0.1% TritonX-100 in PBS. • Quenching buffer: 3% H2O2, 0.1% Azide in wash buffer, Azide and hydrogen peroxide (H2O2) are added fresh. • Blocking buffer: 5% BSA in TBST (tris buffered saline plus 0.1% Tween 20). • Primary antibody: Rabbit anti-human Phospho-Akt antibody (Cell Signaling 9271): 1×250 diluted in blocking buffer. • Secondary antibody: HRP (horse radish peroxidase)-conjugated Goat anti-Rabbit secondary, stock solution: Jackson ImmunoResearch (Goat anti-Rabbit HRP, #111-035-144) 1:1 diluted in glycerol, store at −20° C. The working solution: 1×2000 dilution of stock in blocking buffer. • Chemiluminescent working solution (Pierce, 37030): SuperSignal ELISA (enzyme linked immunosorbant assay) Pico Chemiluminescent substrate. • Crystal Violet solution: Stock: 2.5% Crystal violet in methanol, filtered and kept at ambient temperature. The working solution: dilute the stock 1:20 with PBS immediately before use. • 10% SDS: working solution: 5% SDS (sodium dodecylsulfate), diluted in PBS Methods: Day 1:
A 96 well TC (tissue culture treated) plate was coated with 10 μg/mL poly-L-Lysine at 37° C. for 30 min, washed twice with PBS, and air-dried for 5 minutes before cells were added. Hela cells were seeded at 10,000 cells/well and the cells were starved in 100 μL starvation medium containing Axl/Fc for 24 hrs.
The cells were pre-treated with test compounds by adding 100 μL of 2× test compound to the starvation medium on the cells. The cells were incubated at 37° C. for 1 hr before stimulation.
The cells were stimulated by Axl-antibody cross-linking as follows: A 5× 1st/2nd Axl antibody mixture was made (37.5 μg/mL 1st/100 μg/mL 2nd) in starvation medium and nutated at 4° C. with thorough mixing for 1-2 hours for clustering. The resulting mix was warmed to 37° C. 50 μL of 5× Axl 1st/2nd of antibody cluster was added to the cells and the cells were incubated at 37° C. for 5 min.
After 5 minutes stimulation, the plate was flicked to remove medium and the plate was tapped onto paper towels. Formaldehyde (4.0% in PBS, 100 μL) was added to fix the cells and the cells were incubated at ambient temperature for 20 min without shaking.
The cells were washed with a plate washer buffer to remove the formaldehyde solution. The plate was flicked to removed excess wash buffer and tapped onto paper towels. Quenching buffer (100 μL) was added to each well and the cells were incubated at ambient temperature for 20 minutes without shaking.
The cells were washed with a plate washer buffer to remove the quenching buffer. Blocking buffer (100 μL) was added and the cells were incubated at ambient temperature for at least an hour with gentle shaking.
The cells were washed with a plate washer buffer and diluted primary antibody (50 μL) was added to each well (blocking buffer was added to the negative control wells instead). The plates were incubated overnight at 4° C. with gentle shaking.
The wash buffer was removed, diluted secondary antibody (100 μL) was added, and the cells were incubated at ambient temperature for 1 hour with gentle shaking. […]

SMILES | IC50
Nc1nc(Nc2ccc3c(c2)CC[C@@H](N(CC2CC4C=CC2C4)CC2CC4C=CC2C4)CC3)nn1-c1cc2c(nn1)-c1ccccc1CCC2 (stereo partly drawn) [Compound 37, 1-(6,7-dihydro-5H-benzo[6,7]cyclohepta[1,2-c]pyridazin-3-yl)-N^3-((7S)-7-(di(bicyclo[2.2.1]hept-2-en-5-ylmethyl)amino)-6,7,8,9-tetrahydro-5H-benzo[7]annulene-2-yl)-1H-1,2,4-triazole-3,5-diamine] | 1 to 10 µM
CN(C)[C@H]1CCc2ccc(Nc3nc(N)n(-c4cc5c(nn4)-c4cccnc4CCC5)n3)cc2CC1 [Compound 47, 1-(6,7-dihydro-5H-pyrido[2′,3′:6,7]cyclohepta[1,2-c]pyridazin-3-yl)-N^3-((7S)-7-(dimethylamino)-6,7,8,9-tetrahydro-5H-benzo[7]annulene-2-yl)-1H-1,2,4-triazole-3,5-diamine] | 1 to 10 µM
Nc1nc(Nc2ccc3c(c2)CCC(N2CCC(F)(F)CC2)CC3)nn1-c1cc2c(nn1)-c1ccccc1CCC2 (stereo not drawn) [Compound 3, 1-(6,7-dihydro-5H-benzo[6,7]cyclohepta[1,2-c]pyridazin-3-yl)-N^3-(7-(4,4-difluoropiperidin-1-yl)-6,7,8,9-tetrahydro-5H-benzo[7]annulene-2-yl)-1H-1,2,4-triazole-3,5-diamine] | 1 to 10 µM
CCOC(=O)C1CCN(C2CCc3ccc(Nc4nc(N)n(-c5cc6c(nn5)-c5ccccc5CCC6)n4)cc3CC2)CC1 (stereo not drawn) [Compound 6, 1-(6,7-dihydro-5H-benzo[6,7]cyclohepta[1,2-c]pyridazin-3-yl)-N^3-(7-(4-(ethoxycarbonyl)piperidin-1-yl)-6,7,8,9-tetrahydro-5H-benzo[7]annulene-2-yl)-1H-1,2,4-triazole-3,5-diamine] | < 1 µM
Nc1nc(Nc2ccc3c(c2)CCC(N2CCC(C(=O)O)CC2)CC3)nn1-c1cc2c(nn1)-c1ccccc1CCC2 (stereo not drawn) [Compound 7, 1-(6,7-dihydro-5H-benzo[6,7]cyclohepta[1,2-c]pyridazin-3-yl)-N^3-(7-(4-(carboxy)piperidin-1-yl)-6,7,8,9-tetrahydro-5H-benzo[7]annulene-2-yl)-1H-1,2,4-triazole-3,5-diamine] | < 1 µM
CN(CC(=O)O)C1CCc2ccc(Nc3nc(N)n(-c4cc5c(nn4)-c4ccccc4CCC5)n3)cc2CC1 (stereo not drawn) [Compound 8, 1-(6,7-dihydro-5H-benzo[6,7]cyclohepta[1,2-c]pyridazin-3-yl)-N^3-(7-((carboxymethyl)(methyl)amino)-6,7,8,9-tetrahydro-5H-benzo[7]annulene-2-yl)-1H-1,2,4-triazole-3,5-diamine] | 1 to 10 µM

Next, values leading:

IC50 | SMILES
< 1 µM | CC(C)N[C@H]1CCc2ccc(Nc3nc(N)n(-c4cc5c(nn4)-c4cccnc4CCC5)n3)cc2CC1 [Compound 54, 1-(6,7-dihydro-5H-pyrido[2′,3′:6,7]cyclohepta[1,2-c]pyridazin-3-yl)-N^3-((7S)-7-((methylethyl)amino)-6,7,8,9-tetrahydro-5H-benzo[7]annulene-2-yl)-1H-1,2,4-triazole-3,5-diamine]
< 1 µM | Nc1nc(Nc2ccc3c(c2)CC[C@@H](NCC2CC4C=CC2C4)CC3)nn1-c1cc2c(nn1)-c1ccccc1CCC2 (stereo partly drawn) [Compound 38, 1-(6,7-dihydro-5H-benzo[6,7]cyclohepta[1,2-c]pyridazin-3-yl)-N^3-((7S)-7-((bicyclo[2.2.1]hept-2-en-5-ylmethyl)amino)-6,7,8,9-tetrahydro-5H-benzo[7]annulene-2-yl)-1H-1,2,4-triazole-3,5-diamine]
< 1 µM | CC(C)N[C@H]1CCc2ccc(Nc3nc(N)n(-c4cc5c(nn4)-c4ccccc4CCC5)n3)cc2CC1 [Compound 24, 1-(6,7-dihydro-5H-benzo[6,7]cyclohepta[1,2-c]pyridazin-3-yl)-N^3-((7S)-7-(2-propylamino)-6,7,8,9-tetrahydro-5H-benzo[7]annulene-2-yl)-1H-1,2,4-triazole-3,5-diamine]
< 1 µM | Nc1nc(Nc2ccc3c(c2)CC[C@@H](NC2CCCCC2)CC3)nn1-c1cc2c(nn1)-c1ccccc1CCC2 [Compound 21, 1-(6,7-dihydro-5H-benzo[6,7]cyclohepta[1,2-c]pyridazin-3-yl)-N^3-((7S)-7-(cyclohexylamino)-6,7,8,9-tetrahydro-5H-benzo[7]annulene-2-yl)-1H-1,2,4-triazole-3,5-diamine]
< 1 µM | CCC(CC)N[C@H]1CCc2ccc(Nc3nc(N)n(-c4cc5c(nn4)-c4ccccc4CCC5)n3)cc2CC1 [Compound 33, 1-(6,7-dihydro-5H-benzo[6,7]cyclohepta[1,2-c]pyridazin-3-yl)-N^3-((7S)-7-(3-pentylamino)-6,7,8,9-tetrahydro-5H-benzo[7]annulene-2-yl)-1H-1,2,4-triazole-3,5-diamine]
< 1 µM | Nc1nc(Nc2ccc3c(c2)CC[C@@H](NCC2CCCC2)CC3)nn1-c1cc2c(nn1)-c1ccccc1CCC2 [Compound 36, 1-(6,7-dihydro-5H-benzo[6,7]cyclohepta[1,2-c]pyridazin-3-yl)-N^3-((7S)-7-((cyclopentylmethyl)amino)-6,7,8,9-tetrahydro-5H-benzo[7]annulene-2-yl)-1H-1,2,4-triazole-3,5-diamine]
< 1 µM | Nc1nc(Nc2ccc3c(c2)CC[C@@H](N(CC2CC2)CC2CC2)CC3)nn1-c1cc2c(nn1)-c1cccnc1CCC2 [Compound 50, 1-(6,7-dihydro-5H-pyrido[2′,3′:6,7]cyclohepta[1,2-c]pyridazin-3-yl)-N^3-((7S)-7-(di(cyclopropylmethyl)amino)-6,7,8,9-tetrahydro-5H-benzo[7]annulene-2-yl)-1H-1,2,4-triazole-3,5-diamine]
< 1 µM | CCCN(CCC)[C@H]1CCc2ccc(Nc3nc(N)n(-c4cc5c(nn4)-c4cccnc4CCC5)n3)cc2CC1 [Compound 49, 1-(6,7-dihydro-5H-pyrido[2′,3′:6,7]cyclohepta[1,2-c]pyridazin-3-yl)-N^3-((7S)-7-(dipropylamino)-6,7,8,9-tetrahydro-5H-benzo[7]annulene-2-yl)-1H-1,2,4-triazole-3,5-diamine]
< 1 µM | CC=CCN[C@H]1CCc2ccc(Nc3nc(N)n(-c4cc5c(nn4)-c4ccccc4CCC5)n3)cc2CC1 [Compound 42, 1-(6,7-dihydro-5H-benzo[6,7]cyclohepta[1,2-c]pyridazin-3-yl)-N^3-((7S)-7-(but-2-enylamino)-6,7,8,9-tetrahydro-5H-benzo[7]annulene-2-yl)-1H-1,2,4-triazole-3,5-diamine]
